Measurements from patent US7186831B2, “5-halo-2-alkyl[1,2,4]triazolo[1,5-a]pyrimidin-7-amines” (priority 2001, dated 2007).

Assay: log P by HPLC
Assay type: physicochemical
[1] = EEC directive 79/831 Annex V. A8 by HPLC (gradient method, acetonitrile/0.1% aqueous phosphoric acid)
[2] = HPLC, gradient method, acetonitrile/0.1% aqueous phosphoric acid, EEC directive 79/831 Annex V. A8

`CC(Nc1c(-c2ccc(F)cc2Cl)c(Cl)nc2nc(C3CC3)nn12)C(F)(F)F` (racemic) [compound 505] gave a logP [1] of 3.75.

With `CC(C)C(C)Nc1c(-c2ccc(F)cc2Cl)c(Cl)nc2nc(C3CC3)nn12` (racemic) [compound 586] the logP [2] was 4.25.

Compound `CC(C)C(C)Nc1c(-c2ccc(F)cc2Cl)c(Cl)nc2nc(C3CC3)nn12` (racemic) [compound 587] has a logP [2] of 4.25.

For `Cc1nc2nc(Cl)c(-c3ccc(F)cc3Cl)c(NC(C)C(F)(F)F)n2n1` (racemic) [compound 640], the logP [2] was 3.19.

With `CC(Nc1c(-c2ccc(F)cc2Cl)c(Cl)nc2nc(C3CC3)nn12)C(F)(F)F` (racemic) [compound 747] the logP [2] was 3.73.

Work on `CC(Nc1c(-c2ccc(F)cc2Cl)c(Cl)nc2nc(C3CC3)nn12)C(F)(F)F` (racemic) [compound 748] yielded a logP [2] of 3.77.

In the case of `CC(C)C(C)Nc1c(-c2ccc(F)cc2Cl)c(Cl)nc2nc(C3CC3)nn12` (racemic) [compound 775], the logP [2] is reported as 4.23.

Compound `Cc1nc2nc(Cl)c(-c3ccc(F)cc3F)c(NC(C)C(F)(F)F)n2n1` (single isomer, unassigned) [compound 359] has a logP [1] of 2.95.

`Cc1nc2nc(Cl)c(-c3ccc(F)cc3F)c(NC(C)C(F)(F)F)n2n1` (single isomer, unassigned) [compound 360] showed a logP [1] of 2.96.

`C[C@H](Nc1c(-c2ccc(F)cc2F)c(Cl)nc2nc(C3CC3)nn12)C(F)(F)F` (single isomer, unassigned) [compound 489] showed a logP [1] of 3.51.

`C[C@H](Nc1c(-c2ccc(F)cc2F)c(Cl)nc2nc(C3CC3)nn12)C(F)(F)F` (single isomer, unassigned) [compound 490] showed a logP [1] of 3.52.

Work on `Cc1nc2nc(Cl)c(-c3ccc(F)cc3Cl)c(N[C@@H](C)C(F)(F)F)n2n1` (single isomer, unassigned) [compound 641] yielded a logP [2] of 3.2.

With `Cc1nc2nc(Cl)c(-c3ccc(F)cc3Cl)c(N[C@@H](C)C(F)(F)F)n2n1` (single isomer, unassigned) [compound 642] the logP [2] was 3.17.

With `CC(Nc1c(-c2ccc(Cl)cc2Cl)c(Cl)nc2nc(C3CC3)nn12)C(F)(F)F` (single isomer, unassigned) [compound 710] the logP [2] was 4.12.

`CC(Nc1c(-c2ccc(Cl)cc2Cl)c(Cl)nc2nc(C3CC3)nn12)C(F)(F)F` (single isomer, unassigned) [compound 711] gave a logP [2] of 4.19.

With `CC(C)C(C)Nc1c(-c2ccc(Cl)cc2Cl)c(Cl)nc2nc(C3CC3)nn12` (single isomer, unassigned) [compound 756] the logP [2] was 4.72.

Work on `CC(C)C(C)Nc1c(-c2ccc(Cl)cc2Cl)c(Cl)nc2nc(C3CC3)nn12` (single isomer, unassigned) [compound 757] yielded a logP [2] of 4.72.

For `CC(C)C(C)Nc1c(-c2ccc(Cl)cc2Cl)c(Cl)nc2nc(C3CC3)nn12` (single isomer, unassigned) [compound 758], the logP [2] was 4.72.

With `CC(C)C(C)Nc1c(-c2ccc(Cl)cc2Cl)c(Cl)nc2nc(C3CC3)nn12` (single isomer, unassigned) [compound 759] the logP [2] was 4.72.

With `CC(Nc1c(-c2ccc(F)cc2Cl)c(Cl)nc2nc(C3CC3)nn12)C(F)(F)F` (single isomer, unassigned) [compound 767] the logP [2] was 3.73.

Compound `CC(Nc1c(-c2ccc(F)cc2Cl)c(Cl)nc2nc(C3CC3)nn12)C(F)(F)F` (single isomer, unassigned) [compound 768] has a logP [2] of 3.77.

`Fc1cc(F)c(-c2c(Cl)nc3nc(C(F)(F)F)nn3c2N2CCC(C(F)(F)F)CC2)c(F)c1` [Example 1] showed a chromatographic logP (HPLC) of 4.43.

`Fc1cc(F)c(-c2c(Cl)nc3nc(C(F)(F)F)nn3c2Cl)c(F)c1` [Example 819, 5,7-dichloro-2-(trifluoromethyl)-6-(2,4,6-trifluorophenyl)[1,2,4]triazolo[1,5-a]pyrimidine] showed a chromatographic logP (HPLC) of 3.71.

In the case of `Oc1nc2nc(C(F)(F)F)nn2c(O)c1-c1c(F)cc(F)cc1F` [Example 832, 2-trifluoromethyl-6-(2,4,6-trifluoro-phenyl)-[1,2,4]triazolo[1,5-a]pyrimidine-5,7-diol], the chromatographic logP (HPLC) is reported as 0.81.

`CCc1nc2nc(Cl)c(-c3c(F)cc(F)cc3F)c(N3CCC(C(F)(F)F)CC3)n2n1` [compound 2] showed a logP [2] of 3.99.

Compound `CCc1nc2nc(Cl)c(-c3c(F)cc(F)cc3F)c(NCC(F)(F)F)n2n1` [compound 5] has a logP [2] of 3.06.

`CCc1nc2nc(Cl)c(-c3c(F)cc(F)cc3F)c(NCCC(F)(F)F)n2n1` [compound 6] showed a logP [2] of 3.18.

Compound `CC(Nc1c(-c2c(F)cc(F)cc2F)c(Cl)nc2nc(C(C)(C)C)nn12)C(F)(F)F` (stereo not drawn) [compound 9] has a logP [2] of 4.24.

`C=C(C)CN(CC)c1c(-c2c(F)cc(F)cc2F)c(Cl)nc2nc(C(F)(F)F)nn12` [compound 10] showed a logP [2] of 4.73.

Work on `CC(C)Nc1c(-c2c(F)cc(F)cc2F)c(Cl)nc2nc(C(F)(F)F)nn12` [compound 11] yielded a logP [2] of 3.8.

Work on `Cc1nc2nc(Cl)c(-c3c(F)cc(F)cc3F)c(NC(C)C(F)(F)F)n2n1` (stereo not drawn) [compound 12] yielded a logP [2] of 3.01.

`Cc1nc2nc(Cl)c(-c3c(F)cc(F)cc3F)c(NCC(F)(F)F)n2n1` [compound 13] showed a logP [2] of 2.69.

With `C=C(C)CN(CC)c1c(-c2c(F)cc(F)cc2F)c(Cl)nc2nc(C)nn12` [compound 14] the logP [2] was 3.83.

`C=C(C)CN(CC)c1c(-c2c(F)cc(F)cc2F)c(Cl)nc2nc(CC)nn12` [compound 15] gave a logP [2] of 4.34.

In the case of `C=C(C)CNc1c(-c2c(F)cc(F)cc2F)c(Cl)nc2nc(C)nn12` [compound 16], the logP [2] is reported as 2.76.

Work on `CC(C)Nc1c(-c2ccccc2Cl)c(Cl)nc2nc(C3CC3)nn12` [compound 17] yielded a logP [2] of 3.39.

In the case of `Cc1nc2nc(Cl)c(-c3c(F)cc(F)cc3F)c(NCC#N)n2n1` [compound 18], the logP [2] is reported as 2.02.

In the case of `C=C(C)CNc1c(-c2c(F)cc(F)cc2F)c(Cl)nc2nc(CC)nn12` [compound 21], the logP [2] is reported as 3.15.

Compound `C=C(C)CNc1c(-c2c(F)cc(F)cc2F)c(Cl)nc2nc(C(F)(F)F)nn12` [compound 22] has a logP [2] of 3.82.

In the case of `CCc1nc2nc(Cl)c(-c3c(F)cc(F)cc3F)c(NCC#N)n2n1` [compound 23], the logP [2] is reported as 2.27.

With `N#CCNc1c(-c2c(F)cc(F)cc2F)c(Cl)nc2nc(C(F)(F)F)nn12` [compound 24] the logP [2] was 2.91.

Compound `CC(Nc1c(-c2c(F)cc(F)cc2F)c(Br)nc2nc(C(F)(F)F)nn12)C(F)(F)F` (stereo not drawn) [compound 25] has a logP [2] of 3.99.

For `Cc1nc2nc(Cl)c(-c3c(F)cc(F)cc3F)c(NC(C)C)n2n1` [compound 26], the logP [2] was 2.71.

Compound `Cc1nc2nc(Cl)c(-c3c(F)cc(F)cc3F)c(NNC(C)C)n2n1` [compound 28] has a logP [2] of 2.7.

In the case of `CCN(CCOC)c1c(-c2c(F)cc(F)cc2F)c(Cl)nc2nc(C)nn12` [compound 29], the logP [2] is reported as 2.93.

For `CCc1nc2nc(Cl)c(-c3c(F)cc(F)cc3F)c(N(CC)CCOC)n2n1` [compound 30], the logP [2] was 3.37.

`CCN(CCOC)c1c(-c2c(F)cc(F)cc2F)c(Cl)nc2nc(C(F)(F)F)nn12` [compound 31] gave a logP [2] of 4.04.

`Fc1cc(F)c(-c2c(Cl)nc3nc(C(F)(F)F)nn3c2NC2CCCC2)c(F)c1` [compound 32] gave a logP [2] of 4.25.

In the case of `CCN(CC)c1c(-c2c(F)cc(F)cc2F)c(Cl)nc2nc(C(F)(F)F)nn12` [compound 33], the logP [2] is reported as 4.25.

In the case of `Fc1cc(F)c(-c2c(Cl)nc3nc(C(F)(F)F)nn3c2N2CCOCC2)c(F)c1` [compound 34], the logP [2] is reported as 3.22.

With `Fc1cc(F)c(-c2c(Cl)nc3nc(C(F)(F)F)nn3c2NC2CC2)c(F)c1` [compound 35] the logP [2] was 3.53.
